What was measured:
[1] = system: Human immunodeficiency virus 1; test: Antiviral activity against wild type HIV 1 3B infected in human MT4 cells assessed as protection against virus-induced cytopathogenicity after 5 days by MTT assay; format: functional, organism-based; details: Human immunodeficiency virus 1, 3B, MT4, 120 h
[2] = system: Human immunodeficiency virus 1; test: Antiviral activity against HIV 1 RES056 harboring reverse transcriptase K103N/Y181C double mutant infected in human MT4 cells assessed as protection against virus-induced cytopathogenicity after 5 days by MTT assay; format: functional, organism-based; details: Human immunodeficiency virus 1, RES056, MT4, 120 h
[3] = system: Human immunodeficiency virus 2; test: Antiviral activity against wild type HIV 2 ROD infected in human MT4 cells assessed as protection against virus-induced cytopathogenicity after 5 days by MTT assay; format: functional, organism-based; details: Human immunodeficiency virus 2, ISOLATE ROD, MT4, 120 h
[4] = target: Human immunodeficiency virus type 1 reverse transcriptase (Human immunodeficiency virus 1, UniProt Q72547); test: Inhibition of recombinant HIV1 Reverse transcriptase p66/p51 using poly (rA)-oligo (dT) as template primer after 40 mins by spectrofluorometric analysis
[5] = Cytotoxicity against uninfected human MT4 cells assessed as decrease in cell viability after 5 days by MTT assay; format: cell-based
[6] = Selectivity index, ratio of CC50 for uninfected human MT4 cells to EC50 for wild type HIV 1 3B infected in human MT4 cells; format: toxicity, cell-based; details: uninfected and infected with wild type HIV-1 3B, read-out: Ratio CC50/EC50

Row | Compound | EC50 [1] [nM] | EC50 [2] [µg/mL] | EC50 [3] [µg/mL] | IC50 [4] [nM] | CC50 at 120 h [5] [nM] | selectivity ratio [6]
1 | N#Cc1ccc(Nc2nccc(NCc3ccc(F)cc3)n2)cc1 | 72 | > 0.55 | > 0.55 | 382 | 1720 | 23
2 | COc1cccc(CNc2ccnc(Nc3ccc(C#N)cc3)n2)c1 | 4.5 | > 0.79 | > 0.79 | 18 | 2380 | 518
3 | Cc1cc(C#N)cc(C)c1Oc1nc(Nc2ccc(C#N)cc2)nc(N)c1Br [ETRAVIRINE] | – | – | – | – | > 4590 | –
4 | COc1ccc(CNc2ccnc(Nc3ccc(C#N)cc3)n2)cc1 | 39.3 | > 0.78 | > 0.78 | 85 | 2350 | 60
5 | O=C1Nc2ccc(Cl)cc2[C@@](C#CC2CC2)(C(F)(F)F)O1 [EFAVIRENZ] | 6.3 | – | – | – | > 6340 | –
6 | N#Cc1ccc(Nc2nccc(NCc3cccc(Br)c3)n2)cc1 | 20.3 | > 0.67 | > 0.67 | 24 | 1760 | 86
7 | N#Cc1ccc(Nc2nccc(NCc3ccc(Br)cc3)n2)cc1 | 39.4 | > 1.28 | > 1.28 | 29 | 3370 | 85
8 | N#Cc1ccc(Nc2nccc(NCc3ccccc3F)n2)cc1 | 2.6 | > 0.88 | > 0.88 | 16 | 2760 | 1080
9 | N#Cc1ccc(Nc2nccc(NCc3ccc(Cl)cc3)n2)cc1 | 47.6 | > 1.1 | > 1.1 | 48 | 3280 | 71
10 | COc1ccccc1CNc1ccnc(Nc2ccc(C#N)cc2)n1 | 87.5 | > 27.3 | > 27.3 | 936 | 82400 | 937
11 | N#Cc1ccc(Nc2nccc(NCc3ccccc3Br)n2)cc1 | 42.1 | > 74.1 | > 74.1 | 71 | 195000 | 4680
12 | N#Cc1ccc(Nc2nccc(NCc3ccc(F)cc3F)n2)cc1 | 16.9 | > 1.41 | > 1.41 | 56 | 4180 | 245
13 | N#Cc1ccc(Nc2nccc(NCc3ccccc3)n2)cc1 | 5.3 | > 0.48 | > 0.48 | 20 | 1590 | 294
14 | Cc1ccnc2c1NC(=O)c1cccnc1N2C1CC1 [NEVIRAPINE] | – | ≥ 2.02 | – | – | > 15000 | –
15 | N#Cc1ccc(Nc2nccc(NCc3cccc(F)c3)n2)cc1 | 4.4 | > 0.45 | > 0.45 | 16 | 1410 | 333
16 | N#Cc1ccc(Nc2nccc(NCc3ccccc3Cl)n2)cc1 | 14.9 | > 92.3 | > 92.3 | 24 | 275000 | 18600
17 | N#Cc1ccc(Nc2nccc(NCc3cccc(Cl)c3)n2)cc1 | 11.9 | > 0.7 | > 0.7 | 18 | 2080 | 175
18 | Cc1ccc(CNc2ccnc(Nc3ccc(C#N)cc3)n2)cc1C | 3 | > 1.21 | > 1.21 | 9 | 3670 | 1190
19 | N#Cc1ccc(Nc2nccc(NCc3cccc(C(F)(F)F)c3)n2)cc1 | 206 | > 0.71 | > 0.71 | 122 | 1920 | 9
20 | N#Cc1ccc(Nc2nccc(NCc3ccc(C(F)(F)F)cc3)n2)cc1 | 127 | > 1.11 | > 1.11 | 70 | 3010 | 24
21 | Cc1ccc(CNc2ccnc(Nc3ccc(C#N)cc3)n2)cc1 | 8.2 | > 0.79 | > 0.79 | 13 | 2500 | 297
22 | N#Cc1ccc(Nc2nccc(NCc3ccccc3C(F)(F)F)n2)cc1 | 1060 | > 41.6 | > 41.6 | 1540 | 113000 | 107
